# Entries after “also recorded” stand apart in the source; their conditions may differ.
# Tested on: ClpV1-Nt (ClpV1 N-terminal domain)
# Test: Microscale thermophoresis (MST), binding of TssC N-terminal peptides to ClpV1-Nt
# Set-up: species or system enteroaggregative Escherichia coli
# Settings: 200 nM labeled ClpV1-Nt vs up to 500 μM peptide, 25 mM Tris-HCl pH 7.5, 200 mM NaCl, glycerol 5%, 0.05% Tween-20, triplicate
# Procedure: E. coli BL21 (DE3) pLysS cells carrying the pETG20A-ClpV1-Nt plasmid were grown at 37 °C in TB medium (1.2% peptone, 2.4% yeast extract, 72 mM K2HPO4, 17 mM KH2PO4, and 0.4% glycerol). Expression of clpV1-Nt was induced at A600 = 0.6 with 0.5 mM IPTG for 18 hours at 25 °C. Cells were then resuspended in lysis buffer (50 mM Tris-HCl pH 8.0, 300 mM NaCl, 1 mM EDTA, 0.5 mg/mL lysozyme, 1mM phenylmethylsulfonyl fluoride), submitted to several freeze-thawing cycles and sonicated after the addition of 20 μg/mL DNase and 20 mM MgCl2. Pellet and soluble fraction were separated by centrifugation for 30 min at 16,000 × g. The soluble fraction containing ClpV1-Nt was loaded onto a 5-mL Ni^2+ affinity column (HisTrap™ FF) using an ÄKTA Explorer apparatus (GE healthcare) and the immobilized proteins were eluted in 50 mM Tris-HCl pH8.0, 300 mM NaCl supplemented with 250 mM imidazole. The protein solution was desalted on a HiPrep 26/10 column (Sephadex^TM G-25, Amersham Biosciences), and ClpV1-Nt was obtained by cleavage using 2 mg of TEV protease for 18 hours at 4 °C and collected in the flow-through of a 5-mL Nickel column. The protein was concentrated using the centricon technology (Millipore, 10-kDa cut-off). […]
# Microscale thermophoresis experiments were performed using a Monolith NT.115 apparatus (NanoTemper). […] Each data point was measured in triplicate. […]
sequence,measurement,value
"ATDDCLEEIINNTRA [TssC2 peptide, TssC2 (residues 15–29), […], synthesized by Genscript]",binding to ClpV1-Nt (in words),no binding; also recorded: no interaction

# From article PMC5048182, “Structure and specificity of the Type VI secretion system ClpV-TssC interaction in enteroaggregative Escherichia coli” (Scientific Reports, 2016)
